# Laboratory results from patent publication US20150004100A1, “HETEROCYCLIC COMPOUNDS AS IMAGING PROBES OF TAU PATHOLOGY” (GE HEALTHCARE LIMITED, priority 2011, published 2015).
# Entries after “also recorded” stand apart in the source; their conditions may differ.
# Columns and labels:
# [1] = tested on: tau+ NFTs; experiment: Tissue binding assay (fluorescence), NFTs in human AD tissue sections; set-up: key to NFTs (staining): −: No staining; +: weak staining; ++: moderate staining; +++: intense staining; conditions: for NFTs (staining): 100 μM, human AD tissue
# Experimental: (§1) Human brain tissue samples from the entorhinal cortex of patients with Alzheimer's disease (AD) and healthy controls were obtained from Tissue Solutions (Tissue Solutions Ltd, Glasgow, UK). Tissue samples were collected after informed written consent, and specimens were dissected at the tissue bank and snap-frozen for cryopreservation at a time interval of between 3 and 18 h after death. The frozen tissue was embedded in TissueTek® (VWR) and sectioned using a Microm HM560 cryostat (Thermo Scientific). Serial 12 μm sections were mounted onto SuperFrost®+ glass slides (VWR) and stored a −70° C.
# (§2) The binding of compounds to tau+NFTs and Aβ+ plaques in human AD tissue were evaluated based on fluorescence.
# (§3) Briefly, tissue sections were defrosted and fixed in ice-cold 70% ethanol. All tissue sections were rinsed with PBS after fixation and between all subsequent incubation steps. To quench autofluorescence, tissue sections were incubated first with 0.25% KMnO4 (Sigma-Aldrich) in PBS for 12 min, and then with 0.1% […]/0.1% oxalic acid (both reagents from Sigma-Aldrich) in PBS for 1 min. The tissue sections were blocked with 2% BSA in PBS for 10 min, and then incubated with the test compounds at 100 μM concentration for 1 h at RT. […] Finally the tissue sections were rinsed in PBS, and mounted in SlowFade® mounting media (Invitrogen). Images of labelled tissue sections were captured using a Nikon digital camera connected to a Leica microscope and using the NIS Elements D software (Nikon). Images were further processed with the Photoshop® software (Adobe).
# [2] = tested on: Aβ+ plaques; experiment: Tissue binding assay (fluorescence), plaques in human AD tissue sections; set-up: key to Plaques (staining): −: No staining; +: weak staining; ++: moderate staining; +++: intense staining; conditions: human AD tissue
# [3] = tested on: Aβ+ plaques; experiment: as above; set-up: key to Plaques (staining): −: No staining; +: weak staining; ++: moderate staining; +++: intense staining; conditions: for Plaques (staining): 100 μM, human AD tissue
# Experimental: as §1, §2, §3
# [4] = Protein binding assay, rat brain homogenates (rapid equilibrium dialysis); assay type: in vitro ADME; conditions: rat brain homogenate, % bound, criterion <99%
# Experimental: (§4) The protein binding assays provide an estimate of free (unbound) fraction of the compound in the blood or brain in vivo. […] The desirable criterion for this assay is <99% of test compound bound.
# (§5) Test compounds were first dissolved in DMSO to a concentration of 50 μM. This was followed by incubation in samples of human plasma and rat brain homogenates (final test concentration 1 μM). Binding of compounds to proteins was determined in the samples by rapid equilibrium dialysis after 5 and 30 min of incubation.
# [5] = Protein binding assay, human plasma (rapid equilibrium dialysis); assay type: in vitro ADME; conditions: % bound, criterion <99%
# Experimental: as §4, §5
# [6] = tested on: human liver microsomes; experiment: Liver microsome stability assay, human; assay type: in vitro ADME; conditions: 1 μM, 37° C., parent compound remaining, criterion >50%
# Experimental: (§6) The liver microsome stability assay provides an estimate of compound stability and rate of metabolism in vivo. The desirable criterion for this assay is >50% parent compound after 30 min.
# (§7) A 1 μM compound solution was incubated with rat or human liver microsomes (20 mg/ml) at 37° C. and the amount of parent compound remaining following the incubation was determined after 5 and 30 min of incubation using LC-MS.
# [7] = tested on: rat liver microsomes; experiment: Liver microsome stability assay, rat; assay type: in vitro ADME; conditions: 1 μM, 37° C., parent compound remaining, criterion >50%
# Experimental: as §6, §7
# [8] = tested on: tau+ NFTs; experiment: Tissue binding assay (fluorescence), NFTs in human AD tissue sections; set-up: key to NFTs (staining): −: No staining; +: weak staining; ++: moderate staining; +++: intense staining; conditions: for NFTs (staining): Table 2, human AD tissue
# [9] = PAMPA (parallel artificial membrane permeability assay); assay type: in vitro ADME; conditions: 10 μM, 5 h at RT; criterion >−6
# Experimental: The PAMPA assay is used to determine how well a compound crosses a cell membrane by measuring its passage through a phosphotidyl choline barrier. A permeability coefficient >−6 indicates high permeability across lipid membranes and is indicative of a compounds ability to cross the blood brain barrier.
# A 10 μM solution was incubated on a PDVF membrane coated with a 2% phoshotidyl choline solution for 5 h at RT. Membrane penetration was measured using LC-MS.
# [10] = In vivo cold bio-distribution in rat (brain uptake, LC-MS); conditions: for tissue uptake at 2 min / tissue uptake at 10 min / tissue uptake at 30 min / tissue uptake at 60 min: male, Wistar, brain, iv, 50 μg/rat; for tissue uptake at 10 min: 10 min p.i.; for tissue uptake at 30 min: 30 min p.i.; for tissue uptake at 60 min: 60 min p.i.; for Clearance ratio 2:30 min: rat brain, 2 min vs 30 min p.i.
# Experimental: All animal studies were in compliance with local rules and regulations. Test compounds were administered by intravenous (i.v) injection through the tail vein of naïve male Wistar rats (50 μg test compound/rat). The animals were sacrificed by dislocation of the neck at 2, 10, 30, 60 min post-injection (p.i). The brain and plasma were collected from each animal. The concentration of test compound was measured in the plasma and brain homogenates using LS-MS, and calculated as % compound/g (% ID/g).
# [11] = high test concentration, AD tissue
SMILES,NFTs (staining) ([1]; Table 3),Plaques (staining) ([3]; Table 3),fraction unbound at 1 μM [4],fraction unbound at 1 μM [5],Liver stability Human (% PCP) 5 min [6] [% PCP],Liver stability Human (% PCP) 30 min [6] [% PCP],Liver stability Rat (% PCP) 5 min [7] [% PCP],Liver stability Rat (% PCP) 30 min [7] [% PCP],PAMPA Log Pe [9],other results
COc1ccc(-n2nc(C(=O)N3CC[C@@H](F)C3)c3csc(N)c3c2=O)cc1 [Compound 107],−,+,,,,,,,,"Plaques (staining) ([2]; Table 3, 1 μM): −; Plaques (staining) ([2]; Table 3, 10 μM): −"
CC(C)NC(=O)c1nn(-c2ccc([N+](=O)[O-])cc2)c(=O)c2c(N)scc12 [Compound 105],,,0.112,0.02,91.5,73.2,81.29,58.8,−5.10,"NFTs (staining) ([1]; Table 2): ++; Binding to NFTs (in words) [1, 11]: binds to NFTs (C, D) and plaques (D); also recorded: bind to both NFTs and plaques; NFTs (staining) ([8]; 1 μM): −; NFTs (staining) ([8]; 10 μM): +; Binding preference for NFTs (in words) ([8]; lower test concentrations, AD tissue): binds preferentially to NFTs; also recorded: bind with a preference for NFTs; Plaques (staining) ([2]; Table 2, 10 μM): −; Plaques (staining) ([3]; Table 2): ++; Binding to plaques (in words) [3, 11]: binds to NFTs (C, D) and plaques (D); also recorded: bind to both NFTs and plaques"
CC(C)NC(=O)c1nn(-c2ccc(O)cc2)c(=O)c2c(N)scc12 [Compound 58],,,0.506,0.068,100.9,83.4,90.03,79.3,−7.52,
COc1ccc(-n2nc(C(=O)N3CCN(c4cccc(F)n4)CC3)c3csc(N)c3c2=O)cc1 [Compound 90],,,0.112,0.0084,44.62,2.57,72.67,53.0,−5.51,Plaques (staining) ([3]; Table 2): −
CC(C)NC(=O)c1nn(-c2ccc(F)cc2)c(=O)c2c(N)scc12 [Compound 14],,,0.383,0.0522,92.1,61.3,92.8,64.0,−4.89,"NFTs (staining) ([1]; Table 2): +; NFTs (staining) ([8]; 1 μM): −; NFTs (staining) ([8]; 10 μM): −; Plaques (staining) ([2]; Table 2, 1 μM): −; Plaques (staining) ([2]; Table 2, 10 μM): −; Plaques (staining) ([3]; Table 2): +"
CNc1scc2c(C(=O)NC(C)C)nn(-c3ccc(OC)cc3)c(=O)c12 [Compound 87],−,−,,,,,,,,
COc1ccc(-n2nc(C(=O)N3CCN(c4ccc(F)nc4)CC3)c3csc(N)c3c2=O)cc1 [Compound 67],−,−,,,,,,,,
CC(C)NC(=O)c1nn(-c2ccc(O)cc2)c(=O)c2c(NC(=O)OC(C)(C)C)scc12 [Compound 63],,,,,,,,,,NFTs (staining) ([1]; Table 2): −
CC(C)NC(=O)c1nn(-c2ccc(OCCCF)cc2)c(=O)c2c(N)scc12 [Compound 61],,,,,,,,,,NFTs (staining) ([1]; Table 4): −; Plaques (staining) ([3]; Table 4): −
CC(C)NC(=O)c1nn(-c2ccc(OCC(O)CF)cc2)c(=O)c2c(N)scc12 (stereo not drawn) [Compound 59],,,,,,,,,,NFTs (staining) ([1]; Table 4): −; Plaques (staining) ([3]; Table 4): −
CC(C)(C)OC(=O)c1nn(-c2ccc(OCCF)cc2)c(=O)c2c(N)scc12 [Compound 104],,,,,,,,,,NFTs (staining) ([1]; Table 4): −; Plaques (staining) ([3]; Table 4): −
COc1ccc(-n2nc(C(=O)N3CCN(c4cccc(F)n4)CC3)c3csc(NC(=O)OC(C)(C)C)c3c2=O)cc1 [Compound 91],,,,,,,,,,NFTs (staining) ([1]; Table 2): −; Plaques (staining) ([3]; Table 2): −
COc1ccc(-n2nc(C(=O)N3CC[C@H](F)C3)c3csc(N)c3c2=O)cc1 [Compound 108],−,−,,,,,,,,
COc1ccc(-n2nc(C(=O)N3CCC(CCF)CC3)c3csc(N)c3c2=O)cc1 [Compound 56],−,−,0.448,0.0372,80.98,52.10,94.88,92.06,−5.16,
COc1ccc(-n2nc(C(=O)N3CCC(CF)CC3)c3csc(N)c3c2=O)cc1.Cl [Compound 81],,−,0.589,0.0498,91.63,73.10,60.12,32.54,−5.12,
COc1ccc(-n2nc(C(=O)NCCF)c3csc(N)c3c2=O)cc1 [Compound 106],,−,,,,,,,,"tissue uptake at 2 min ([10]; rat, 2 min p.i.): 0.014 %ID/g; tissue uptake at 10 min ([10]; rat): 0.001 %ID/g; tissue uptake at 30 min ([10]; rat): 0.004 %ID/g; tissue uptake at 60 min ([10]; rat): 0.001 %ID/g; Clearance ratio 2:30 min [10]: 3.5; Brain uptake (in words) ([10]; rat, cold bio-distribution): low brain uptake"
CC(C)NC(=O)c1nn(-c2ccc(OCCF)cc2)c(=O)c2c(NC(=O)OC(C)(C)C)scc12 [Compound 64],−,−,,,,,,,,
COc1ccc(-n2nc(NCCF)c3csc(N)c3c2=O)cc1 [Compound 99],,,,,,,,,,"tissue uptake at 2 min ([10]; rat, 2 min p.i.): > 0.2 %ID/g; tissue uptake at 10 min ([10]; rat): 0.092 %ID/g; tissue uptake at 30 min ([10]; rat): 0.013 %ID/g; tissue uptake at 60 min ([10]; rat): 0.001 %ID/g; Clearance ratio 2:30 min [10]: 23.8; Brain uptake and clearance (in words) ([10]; rat, from clearance ratio): rapid brain uptake followed by rapid clearance; Brain uptake % ID/g p.i ([10]; rat, i.v., 2 min p.i.): 0.31 % ID/g"
COc1ccc(-n2nc(C(=O)NC(C)C)c3csc(N(C)C)c3c2=O)cc1 [Compound 82],,,,,,,,,,"NFTs (staining) ([1]; Table 2): +; Plaques (staining) ([2]; Table 2, 1 μM): −; Plaques (staining) ([2]; Table 2, 10 μM): −; Plaques (staining) ([3]; Table 2): ++"
